Data: patent US8536180B2, “Pyrimidine inhibitors of kinase activity” (AbbVie Inc., priority 2009, dated 2013)
pIC50: −log10 of the molar value.

Biological target: T1, C-terminal GST-tagged, recombinant, human IGF-1R, amino acids 954-1367 (Homo sapiens, UniProt P08069)
T1 construct: human IGF-1R, amino acids 954-1367 expressed by baculovirus in Sf21 cells; GST (C); purchased Cell Signaling Technology; host or cells: baculovirus in Sf21 cells
Assay: IGF-1R homogenous time-resolved fluorescence (HTRF) in vitro kinase assay
Type: biochemical
Conditions: IGF-1R kinase, ATP 50 μM final, biotinylated peptide substrate 0.5 μM, 60 minutes at room temperature
Description: IGF-1R kinase activity was assayed by a homogenous time-resolved fluorescence (HTRF) in vitro kinase assay (Mathis, G., HTRF(R) Technology. J Biomol Screen, 1999. 4(6): p. 309-314). Specifically, 10 μL C-terminal GST-tagged, recombinant, human IGF-1R, amino acids 954-1367 expressed by baculovirus in Sf21 cells (Cell Signaling Technology) was mixed with 10 μL inhibitor (various concentrations, 2% final DMSO) and 10 μL of ATP (50 μM final concentration) in reaction buffer (50 mM HEPES, pH 7.5, 10 mM MgCl2, 2 mM MnCl2, 0.1% BSA and 1 mM DTT, 40 μL final volume). The reaction was initiated by addition of 10 μL of biotinylated peptide substrate (Biotin-Ahx-[…], 0.5 μM final concentration) in a black 384-well plate (Packard). After 60 minutes incubation at room temperature, the reaction was quenched by addition of 60 μL stop/revelation buffer to give 30 mM EDTA, 1 μg/mL streptavidin-APC (Prozyme), 50 ng/mL anti-phosphotyrosine mAb PT66-K Europium Cryptate, 30 mM HEPES, pH 7.5, 120 mM KF, 0.005% Tween-20, 0.05% BSA). The quenched reaction was allowed to stand at room temperature for 1 hour and then read in a time-resolved fluorescence detector (Envision, Perkin Elmer) at 615 nm and 665 nm simultaneously. The ratio between the signal of 615 nm and 665 nm was used in the calculation of the IC50.

T1 sequence (P08069 954-1367): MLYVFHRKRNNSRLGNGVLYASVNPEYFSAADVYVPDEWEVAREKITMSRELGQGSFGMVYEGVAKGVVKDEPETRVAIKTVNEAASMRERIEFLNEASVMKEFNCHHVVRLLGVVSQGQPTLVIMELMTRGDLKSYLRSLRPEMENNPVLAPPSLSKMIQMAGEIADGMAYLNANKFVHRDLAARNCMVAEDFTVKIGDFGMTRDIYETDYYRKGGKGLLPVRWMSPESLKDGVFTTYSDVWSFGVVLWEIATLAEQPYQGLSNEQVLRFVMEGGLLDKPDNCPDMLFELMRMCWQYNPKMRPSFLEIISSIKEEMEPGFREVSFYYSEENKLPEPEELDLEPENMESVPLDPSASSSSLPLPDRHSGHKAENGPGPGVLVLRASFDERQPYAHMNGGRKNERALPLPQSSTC

| SMILES | pIC50 |
| --- | --- |
| O=C1CCCN1c1cccc(Nc2nccc(-c3c(-c4ccc5[nH]c(Cc6ccccc6)nc5c4)nc4ccccn34)n2)c1 [Example 1, 1-[3-({4-[2-(2-benzyl-1H-benzimidazol-5-yl)imidazo[1,2-a]pyridin-3-yl]pyrimidin-2-yl}amino)phenyl]pyrrolidin-2-one] | 7.30 to 8.00 |
| CN(C)CCc1cccc(Nc2nccc(-c3c(-c4ccc5nc(Cc6ccccc6)[nH]c5c4)nc4ccccn34)n2)c1 [Example 2, 4-[2-(2-benzyl-1H-benzimidazol-6-yl)imidazo[1,2-a]pyridin-3-yl]-N-{3-[2-(dimethylamino)ethyl]phenyl}pyrimidin-2-amine] | > 8.00 |
| COc1ccccc1Cc1nc2cc(-c3nc4ccccn4c3-c3ccnc(Nc4cccc(CCN(C)C)c4)n3)ccc2[nH]1 [Example 3, N-{3-[2-(dimethylamino)ethyl]phenyl}-4-{2-[2-(2-methoxybenzyl)-1H-benzimidazol-5-yl]imidazo[1,2-a]pyridin-3-yl}pyrimidin-2-amine] | > 8.00 |
| c1ccc(Cc2nc3cc(-c4nc5ccccn5c4-c4ccnc(Nc5ccccc5)n4)ccc3[nH]2)cc1 [Example 4, 4-[2-(2-benzyl-1H-benzimidazol-5-yl)imidazo[1,2-a]pyridin-3-yl]-N-phenylpyrimidin-2-amine] | 7.30 to 8.00 |
| CN(C)CCc1cccc(Nc2nccc(-c3c(-c4ccc5[nH]c(Cc6ccccc6Cl)nc5c4)nc4ccccn34)n2)c1 [Example 5, 4-{2-[2-(2-chlorobenzyl)-1H-benzimidazol-5-yl]imidazo[1,2-a]pyridin-3-yl}-N-{3-[2-(dimethylamino)ethyl]phenyl}pyrimidin-2-amine] | > 8.00 |
| CN(C)CCc1cccc(Nc2nccc(-c3c(-c4ccc5[nH]c(Cc6ccccc6C(F)(F)F)nc5c4)nc4ccccn34)n2)c1 [Example 6, N-{3-[2-(dimethylamino)ethyl]phenyl}-4-(2-{2-[2-(trifluoromethyl)benzyl]-1H-benzimidazol-5-yl}imidazo[1,2-a]pyridin-3-yl)pyrimidin-2-amine] | > 8.00 |
| CN(C)CCc1cccc(Nc2nccc(-c3c(-c4ccc5nc(Cc6ccccc6)[nH]c5c4)nc4sccn34)n2)c1 [Example 7, 4-[6-(2-benzyl-1H-benzimidazol-6-yl)imidazo[2,1-b][1,3]thiazol-5-yl]-N-{3-[2-(dimethylamino)ethyl]phenyl}pyrimidin-2-amine] | > 8.00 |
| COc1ccccc1Cc1nc2ccc(-c3nc4sccn4c3-c3ccnc(Nc4cccc(CCN(C)C)c4)n3)cc2[nH]1 [Example 8, N-{3-[2-(dimethylamino)ethyl]phenyl}-4-{6-[2-(2-methoxybenzyl)-1H-benzimidazol-6-yl]imidazo[2,1-b][1,3]thiazol-5-yl}pyrimidin-2-amine] | > 8.00 |
| CN(C)CCc1cccc(Nc2nccc(-c3c(-c4ccc5nc(Cc6ccccc6Cl)[nH]c5c4)nc4sccn34)n2)c1 [Example 9, 4-{6-[2-(2-chlorobenzyl)-1H-benzimidazol-6-yl]imidazo[2,1-b][1,3]thiazol-5-yl}-N-{3-[2-(dimethylamino)ethyl]phenyl}pyrimidin-2-amine] | > 8.00 |
| CN(C)CCc1cccc(Nc2nccc(-c3c(-c4ccc5nc(CCc6ccccc6)[nH]c5c4)nc4ccccn34)n2)c1 [Example 10, N-{3-[2-(dimethylamino)ethyl]phenyl}-4-{2-[2-(2-phenylethyl)-1H-benzimidazol-6-yl]imidazo[1,2-a]pyridin-3-yl}pyrimidin-2-amine] | 7.30 to 8.00 |
| c1ccc(Nc2nccc(-c3c(-c4ccc5nc(-c6ccccc6)[nH]c5c4)nc4ccccn34)n2)cc1 [Example 11, N-phenyl-4-[2-(2-phenyl-1H-benzimidazol-6-yl)imidazo[1,2-a]pyridin-3-yl]pyrimidin-2-amine] | 6.30 to 7.00 |
| CN(C)CCc1cccc(Nc2nccc(-c3c(-c4ccc5nc(Nc6ccccc6)[nH]c5c4)nc4ccccn34)n2)c1 [Example 12, 6-{3-[2-({3-[2-(dimethylamino)ethyl]phenyl}amino)pyrimidin-4-yl]imidazo[1,2-a]pyridin-2-yl}-N-phenyl-1H-benzimidazol-2-amine] | > 8.00 |
| CN(C)CCc1cccc(Nc2nccc(-c3c(-c4ccc5nc(-c6ccccc6)[nH]c5c4)nc4ccccn34)n2)c1 [Example 13, N-{3-[2-(dimethylamino)ethyl]phenyl}-4-[2-(2-phenyl-1H-benzimidazol-6-yl)imidazo[1,2-a]pyridin-3-yl]pyrimidin-2-amine] | 7.30 to 8.00 |
| COc1cc(N2CCOCC2)ccc1Nc1nccc(-c2c(-c3ccc4nc(Cc5ccccc5)[nH]c4c3)nc3ccccn23)n1 [Example 14, 4-[2-(2-benzyl-1H-benzimidazol-6-yl)imidazo[1,2-a]pyridin-3-yl]-N-(2-methoxy-4-morpholin-4-ylphenyl)pyrimidin-2-amine] | > 8.00 |
| COc1ccccc1Nc1nccc(-c2c(-c3ccc4nc(Cc5ccccc5)[nH]c4c3)nc3ccccn23)n1 [Example 15, 4-[2-(2-benzyl-1H-benzimidazol-6-yl)imidazo[1,2-a]pyridin-3-yl]-N-(2-methoxyphenyl)pyrimidin-2-amine] | 7.00 to 7.29 |
| CS(=O)(=O)c1cccc(Nc2nccc(-c3c(-c4ccc5nc(Cc6ccccc6)[nH]c5c4)nc4ccccn34)n2)c1 [Example 16, 4-[2-(2-benzyl-1H-benzimidazol-6-yl)imidazo[1,2-a]pyridin-3-yl]-N-[3-(methylsulfonyl)phenyl]pyrimidin-2-amine] | 7.00 to 7.29 |
| CN(C)S(=O)(=O)c1cccc(Nc2nccc(-c3c(-c4ccc5nc(Cc6ccccc6)[nH]c5c4)nc4ccccn34)n2)c1 [Example 17, 3-({4-[2-(2-benzyl-1H-benzimidazol-6-yl)imidazo[1,2-a]pyridin-3-yl]pyrimidin-2-yl}amino)-N,N-dimethylbenzenesulfonamide] | 6.30 to 7.00 |
| CS(=O)(=O)c1ccc(Nc2nccc(-c3c(-c4ccc5nc(Cc6ccccc6)[nH]c5c4)nc4ccccn34)n2)cc1 [Example 18, 4-[2-(2-benzyl-1H-benzimidazol-6-yl)imidazo[1,2-a]pyridin-3-yl]-N-[4-(methylsulfonyl)phenyl]pyrimidin-2-amine] | 7.00 to 7.29 |
| c1ccc(Nc2nccc(-c3c(-c4ccc5nc(Nc6ccccc6)[nH]c5c4)nc4ccccn34)n2)cc1 [Example 19, 6-[3-(2-anilinopyrimidin-4-yl)imidazo[1,2-a]pyridin-2-yl]-N-phenyl-1H-benzimidazol-2-amine] | < 6.30 |
| COc1ccccc1Cc1nc2ccc(-c3nc4ccccn4c3-c3ccnc(Nc4ccc(N5CCOCC5)cc4OC)n3)cc2[nH]1 [Example 20, 4-{2-[2-(2-methoxybenzyl)-1H-benzimidazol-6-yl]imidazo[1,2-a]pyridin-3-yl}-N-(2-methoxy-4-morpholin-4-ylphenyl)pyrimidin-2-amine] | 7.00 to 7.29 |
| COc1cc(N2CCOCC2)ccc1Nc1nccc(-c2c(-c3ccc4nc(Cc5c(F)cccc5F)[nH]c4c3)nc3ccccn23)n1 [Example 21, 4-{2-[2-(2,6-difluorobenzyl)-1H-benzimidazol-6-yl]imidazo[1,2-a]pyridin-3-yl}-N-(2-methoxy-4-morpholin-4-ylphenyl)pyrimidin-2-amine] | 7.30 to 8.00 |
| COc1cc(N2CCC(N3CCN(C)CC3)CC2)ccc1Nc1nccc(-c2c(-c3ccc4[nH]c(Cc5ccccc5)nc4c3)nc3ccccn23)n1 [Example 22, 4-[2-(2-benzyl-1H-benzimidazol-5-yl)imidazo[1,2-a]pyridin-3-yl]-N-{2-methoxy-4-[4-(4-methylpiperazin-1-yl)piperidin-1-yl]phenyl}pyrimidin-2-amine] | > 8.00 |
| c1ccc(Cc2nc3ccc(-c4nc5sccn5c4-c4ccnc(Nc5ccccc5)n4)cc3[nH]2)cc1 [Example 23, 4-[6-(2-benzyl-1H-benzimidazol-6-yl)imidazo[2,1-b][1,3]thiazol-5-yl]-N-phenylpyrimidin-2-amine] | 7.00 to 7.29 |
| COc1ccccc1Nc1nccc(-c2c(-c3ccc4nc(Cc5ccccc5)[nH]c4c3)nc3sccn23)n1 [Example 24, 4-[6-(2-benzyl-1H-benzimidazol-6-yl)imidazo[2,1-b][1,3]thiazol-5-yl]-N-(2-methoxyphenyl)pyrimidin-2-amine] | 7.30 to 8.00 |
| Cc1cc(Nc2nccc(-c3c(-c4ccc5nc(Cc6ccccc6)[nH]c5c4)nc4ccccn34)n2)n[nH]1 [Example 25, 4-[2-(2-benzyl-1H-benzimidazol-6-yl)imidazo[1,2-a]pyridin-3-yl]-N-(5-methyl-1H-pyrazol-3-yl)pyrimidin-2-amine] | 7.00 to 7.29 |
| c1ccc(Cc2nc3ccc(-c4nc5ccccn5c4-c4ccnc(Nc5cc(C6CC6)n[nH]5)n4)cc3[nH]2)cc1 [Example 26, 4-[2-(2-benzyl-1H-benzimidazol-6-yl)imidazo[1,2-a]pyridin-3-yl]-N-(3-cyclopropyl-1H-pyrazol-5-yl)pyrimidin-2-amine] | 7.30 to 8.00 |
| COc1cc(N2CCOCC2)ccc1Nc1nccc(-c2c(-c3ccc4nc(-c5ccccc5)[nH]c4c3)nc3ccccn23)n1 [Example 27, N-(2-methoxy-4-morpholin-4-ylphenyl)-4-[2-(2-phenyl-1H-benzimidazol-6-yl)imidazo[1,2-a]pyridin-3-yl]pyrimidin-2-amine] | 7.30 to 8.00 |
